The record followed here is US11130752B2, “Aminopyrimidine compound” (Cardurion Pharmaceuticals, LLC, priority 2018, dated 2021).

This experiment addresses T1, human CaMKIIδ (Homo sapiens, UniProt Q13557).
T1 construct: Full-length, glutathione-S-transferase(GST)-tagged, human CaMKIIδ was purchased from Carna Biosciences; purchased Carna Biosciences (CaMKIIδ); Wako Pure Chemical Industries (calmodulin) 02-111
As to the kind of experiment: In vitro CaMKII inhibitory activity (binding assay, TR-FRET). To be noted: Table 4, GST-tagged human CaMKIIδ, activity ranks. As for the experimental part:
Evaluation of In Vitro CaMKII Inhibitory Activity (Binding Assay)
In vitro CaMKIIδ inhibitory activity was evaluated by a binding assay.
Full-length, glutathione-S-transferase(GST)-tagged, human CaMKIIδ was purchased from Carna Biosciences (product #02-111, Kobe, Japan). Full-length bovine calmodulin was purchased from Wako Pure Chemical Industries (Osaka, Japan). Terbium-labeled anti-GST antibody (Tb-anti-GST Ab) was purchased from Life Technologies (Carlsbad, Calif., USA). Boron-dipyrromethene (BODIPY)-labeled probe ligand was synthesized as described below.
Time-Resolved Fluorescence Resonance Energy Transfer (TR-FRET) Assay
All assays were conducted using 384-well, white, flat-bottomed plates (product #784075, Greiner Bio-One, Frickenhausen, Germany) in kinase assay buffer, which consists of 50 mM HEPES pH 7.6, 10 mM MgCl2, 1 mM EGTA, 0.01% Brig-35, 0.1 mM DTT). The fluorescent probe ligand was added at a final concentration of 300 nM to solutions containing 0.21 nM Tb-anti-GST Ab, 1 mM CaCl2, 10 μg/mL calmodulin, and 0.5 nM GST-tagged CaMKIIδ. After shaded incubation of the protein-probe mixture on ice for 30 min, the premix was dispensed in the assay plate including test inhibitors with 4 fold dilution series of eight concentrations. After 1 hr incubation at room temperature, TR-FRET signals were measured in duplicate using an EnVision microplate reader (Perkin Elmer, Waltham, Mass., USA). The solution in each well was excited with a laser (λ=340 nm) reflected by a dichroic mirror (D400/D505 (Perkin Elmer) through an excitation filter (UV (TRF) 340, (Perkin Elmer)), and fluorescence from Tb and BODIPY were detected through two emission filters (CFP 495 (Perkin Elmer) for Tb, Emission 520 (Perkin Elmer) for BODIPY).
The percentage of inhibition of test compounds was calculated according to equation (1) Inhibition(%)=100×(μH−T)/(μH−μL) (1)
Where T is the value of the wells containing test compounds and μH and μL are the mean values of the 0% and 100% inhibition control wells, respectively. The values of the 0 and 100% controls were the signals obtained in the absence and presence of 3 μM its parent compound, respectively. The half maximal inhibitory concentration (IC50) of test compounds was calculated by fitting the data with the logistic equation using XLfit (IDBS, Guildford, UK). The IC50 was classified according to the following activity ranks.
As usually defined, the IC50 is the concentration that gives 50% inhibition. Low values mean greater potency, high ones weaker potency. Consider `C[C@@H]1CN([C@H]2CC[C@H](n3cc(Nc4ncc(-c5ccc(Cl)c(O[C@@H](C)Cn6cnnn6)c5)cn4)c(OC[C@@H](C)O)n3)CC2)C[C@H](C)O1` [Example 482, (R)-1-((4-((5-(3-(((S)-1-(1H-tetrazol-1-yl)propan-2-yl)oxy)-4-chlorophenyl)pyrimidin-2-yl)amino)-1-((1r,4r)-4-((2S,6R)-2,6-dimethylmorpholino)cyclohexyl)-1H-pyrazol-3-yl)oxy)propan-2-ol], for which the IC50 is less than 10 nM.

As to `C[C@@H]1CN([C@H]2CC[C@H](n3cc(Nc4ncc(-c5ccc(C#N)c(O[C@@H](C)Cn6cnnn6)c5)cn4)c(OCC4CCOCC4)n3)CC2)C[C@H](C)O1` [Example 483, 2-(((S)-1-(1H-tetrazol-1-yl)propan-2-yl)oxy)-4-(2-((1-((1r,4r)-4-((2S,6R)-2,6-dimethylmorpholino)cyclohexyl)-3-((tetrahydro-2H-pyran-4-yl)methoxy)-1H-pyrazol-4-yl)amino)pyrimidin-5-yl)benzonitrile], the IC50 is less than 10 nM.

The compound `COCCOCCCOc1nn([C@H]2CC[C@H](N3CCOCC3)CC2)cc1Nc1ncc(-c2ccc(C#N)c(O[C@@H](C)Cn3cnnn3)c2)cn1` [Example 490, 2-(((S)-1-(1H-tetrazol-1-yl)propan-2-yl)oxy)-4-(2-((3-(3-(2-methoxyethoxy)propoxy)-1-((1r,4r)-4-morpholinocyclohexyl)-1H-pyrazol-4-yl)amino)pyrimidin-5-yl)benzonitrile] had an IC50 of less than 10 nM.

On to `C[C@@H](Cn1cnnn1)Oc1cc(-c2cnc(Nc3cn([C@H]4CC[C@H](N5CCOCC5)CC4)nc3OCC3COC3)nc2)ccc1Cl` [Example 491, 5-(3-(((S)-1-(1H-tetrazol-1-yl)propan-2-yl)oxy)-4-chlorophenyl)-N-(1-((1r,4r)-4-morpholinocyclohexyl)-3-(oxetan-3-ylmethoxy)-1H-pyrazol-4-yl)pyrimidin-2-amine], for which the IC50 was less than 10 nM.

On to `C[C@@H](Cn1cnnn1)Oc1cc(-c2cnc(Nc3cn([C@H]4CC[C@H](N5CCOCC5)CC4)nc3OCC3COC3)nc2)ccc1C#N` [Example 492, 2-(((S)-1-(1H-tetrazol-1-yl)propan-2-yl)oxy)-4-(2-((1-((1r,4r)-4-morpholinocyclohexyl)-3-(oxetan-3-ylmethoxy)-1H-pyrazol-4-yl)amino)pyrimidin-5-yl)benzonitrile], for which the IC50 is less than 10 nM.

Compound `C[C@@H](Cn1cnnn1)Oc1cc(-c2cnc(Nc3cn([C@H]4CC[C@H](N5CCOCC5)CC4)nc3OCCCC#N)nc2)ccc1Cl` [Example 493, 4-((4-((5-(3-(((S)-1-(1H-tetrazol-1-yl)propan-2-yl)oxy)-4-chlorophenyl)pyrimidin-2-yl)amino)-1-((1r,4r)-4-morpholinocyclohexyl)-1H-pyrazol-3-yl)oxy)butanenitrile] showed a half-inhibitory concentration (IC50) of less than 10 nM.

The compound `C[C@@H](Cn1cnnn1)Oc1cc(-c2cnc(Nc3cn([C@H]4CC[C@H](N5CCOCC5)CC4)nc3OCCCC#N)nc2)ccc1C#N` [Example 494, 2-(((S)-1-(1H-tetrazol-1-yl)propan-2-yl)oxy)-4-(2-((3-(3-cyanopropoxy)-1-((1r,4r)-4-morpholinocyclohexyl)-1H-pyrazol-4-yl)amino)pyrimidin-5-yl)benzonitrile] showed an IC50 of less than 10 nM.

As to `C[C@@H](Cn1cnnn1)Oc1cc(-c2cnc(Nc3cn([C@H]4CC[C@H](N5CCOCC5)CC4)nc3OCCC(C)(C)O)nc2)ccc1C#N` [Example 495, 2-(((S)-1-(1H-tetrazol-1-yl)propan-2-yl)oxy)-4-(2-((3-(3-hydroxy-3-methylbutoxy)-1-((1r,4r)-4-morpholinocyclohexyl)-1H-pyrazol-4-yl)amino)pyrimidin-5-yl)benzonitrile], the IC50 is less than 10 nM.

Regarding `COC(C)(C)CCOc1nn([C@H]2CC[C@H](N3CCOCC3)CC2)cc1Nc1ncc(-c2ccc(C#N)c(O[C@@H](C)Cn3cnnn3)c2)cn1` [Example 496, 2-(((S)-1-(1H-tetrazol-1-yl)propan-2-yl)oxy)-4-(2-((3-(3-methoxy-3-methylbutoxy)-1-((1r,4r)-4-morpholinocyclohexyl)-1H-pyrazol-4-yl)amino)pyrimidin-5-yl)benzonitrile], the IC50 was less than 10 nM.

`C[C@@H](Cn1cnnn1)Oc1cc(-c2cnc(Nc3cn([C@H]4CC[C@H](N5CCOCC5)CC4)nc3OCC3CCOCC3)nc2)ccc1Cl` [Example 497, 5-(3-(((S)-1-(1H-tetrazol-1-yl)propan-2-yl)oxy)-4-chlorophenyl)-N-(1-((1r,4r)-4-morpholinocyclohexyl)-3-((tetrahydro-2H-pyran-4-yl)methoxy)-1H-pyrazol-4-yl)pyrimidin-2-amine]: the IC50 was less than 10 nM.

The compound `C[C@@H](Cn1cnnn1)Oc1cc(-c2cnc(Nc3cn([C@H]4CC[C@H](N5CCOCC5)CC4)nc3OCC3CCOC3)nc2)ccc1Cl` (stereo partly drawn) [Example 498, 5-(3-(((S)-1-(1H-tetrazol-1-yl)propan-2-yl)oxy)-4-chlorophenyl)-N-(1-((1r,4r)-4-morpholinocyclohexyl)-3-((tetrahydrofuran-3-yl)methoxy)-1H-pyrazol-4-yl)pyrimidin-2-amine] displayed an IC50 of less than 10 nM.

The compound `C[C@@H](Cn1cnnn1)Oc1cc(-c2cnc(Nc3cn([C@H]4CC[C@H](N5CCOCC5)CC4)nc3OCC3CCCOC3)nc2)ccc1Cl` (stereo partly drawn) [Example 499, 5-(3-(((S)-1-(1H-tetrazol-1-yl)propan-2-yl)oxy)-4-chlorophenyl)-N-(1-((1r,4r)-4-morpholinocyclohexyl)-3-((tetrahydro-2H-pyran-3-yl)methoxy)-1H-pyrazol-4-yl)pyrimidin-2-amine] displayed an IC50 of less than 10 nM.

In turn, `C[C@@H](Cn1cnnn1)Oc1cc(-c2cnc(Nc3cn([C@H]4CC[C@H](N5CCOCC5)CC4)nc3OCCC(C)(C)O)nc2)ccc1Cl` [Example 500, 4-((4-((5-(3-(((S)-1-(1H-tetrazol-1-yl)propan-2-yl)oxy)-4-chlorophenyl)pyrimidin-2-yl)amino)-1-((1r,4r)-4-morpholinocyclohexyl)-1H-pyrazol-3-yl)oxy)-2-methylbutan-2-ol] showed an IC50 of less than 10 nM.

Consider `C[C@@H](Cn1cnnn1)Oc1cc(-c2cnc(Nc3cn([C@H]4CC[C@H](N5CCOCC5)CC4)nc3OCc3cncs3)nc2)ccc1Cl` [Example 501, 5-(3-(((S)-1-(1H-tetrazol-1-yl)propan-2-yl)oxy)-4-chlorophenyl)-N-(1-((1r,4r)-4-morpholinocyclohexyl)-3-(thiazol-5-ylmethoxy)-1H-pyrazol-4-yl)pyrimidin-2-amine], for which the IC50 is less than 10 nM.

In turn, `C[C@@H](Cn1cnnn1)Oc1cc(-c2cnc(Nc3cn([C@H]4CC[C@H](N5CCOCC5)CC4)nc3OCc3ccnn3C)nc2)ccc1Cl` [Example 502, 5-(3-(((S)-1-(1H-tetrazol-1-yl)propan-2-yl)oxy)-4-chlorophenyl)-N-(3-((1-methyl-1H-pyrazol-5-yl)methoxy)-1-((1r,4r)-4-morpholinocyclohexyl)-1H-pyrazol-4-yl)pyrimidin-2-amine] returned an IC50 of less than 10 nM.

Turning to `C[C@@H](Cn1cnnn1)Oc1cc(-c2cnc(Nc3cn([C@H]4CC[C@H](N5CCOCC5)CC4)nc3OCc3ncco3)nc2)ccc1Cl` [Example 503, 5-(3-(((S)-1-(1H-tetrazol-1-yl)propan-2-yl)oxy)-4-chlorophenyl)-N-(1-((1r,4r)-4-morpholinocyclohexyl)-3-(oxazol-2-ylmethoxy)-1H-pyrazol-4-yl)pyrimidin-2-amine], the IC50 was less than 10 nM.

In the case of `C[C@@H](Cn1cnnn1)Oc1cc(-c2cnc(Nc3cn([C@H]4CC[C@H](N5CCOCC5)CC4)nc3OCc3nccs3)nc2)ccc1Cl` [Example 504, 5-(3-(((S)-1-(1H-tetrazol-1-yl)propan-2-yl)oxy)-4-chlorophenyl)-N-(1-((1r,4r)-4-morpholinocyclohexyl)-3-(thiazol-2-ylmethoxy)-1H-pyrazol-4-yl)pyrimidin-2-amine], the IC50 is less than 10 nM.

`C[C@@H](Cn1cnnn1)Oc1cc(-c2cnc(Nc3cn(C4CCC(N5CCOCC5)CC4)nc3OCc3ccnn3C)nc2)ccc1Cl` (stereo partly drawn) [Example 505, 5-(3-(((S)-1-(1H-tetrazol-1-yl)propan-2-yl)oxy)-4-chlorophenyl)-N-(3-((1-methyl-1H-pyrazol-5-yl)methoxy)-1-((1r,4r)-4-morpholinocyclohexyl)-1H-pyrazol-4-yl)pyrimidin-2-amine]: the IC50 is less than 10 nM.
